Measured values reported in US20190290729A1, “PHARMACEUTICAL ASSOCIATION OF GROWTH FACTOR RECEPTOR AGONIST AND ADHESION PROTEIN INHIBITOR FOR CONVERTING A NEOPLASTIC CELL INTO A NON-NEOPLASTIC CELL AND USES THEREOF” (HISTIDE AG, priority 2015, published 2019).
Where no end group is shown, it is not given here.

Tests used:
[1] = tested on: MG63 cells; test: pRB phosphorylation level, immunofluorescence staining quantified with ImageJ, osteosarcoma cells; assay type: cell-based, human; settings: for pRB: Table 9, in association with SiRNA Integrin alpha 3+SiRNA Integrin beta 1 (SEQ ID NO: 141 to 163)
Experimental: (§1) The following starting materials and reagents were used: • Type-I collagen sponge was obtained from Sigma®. • PBS 1× was obtained from Gibco®. • MilliQ water: is water characterised in terms of resistivity (typically 18.2 MΩ·cm at 25° C.). • Low glucose Dulbecco's Modified Eagle Medium (DMEM) was obtained from Invitrogen® • Minimum Essential Medium Eagle without ascorbic acid (αMEM) was obtained from Invitrogen®. • All of the cell culture experiments were carried out without any serum in the medium for the first 8 hours of culture. • Osteosarcoma cells: MG63 cells were obtained from ATCC®. These cells were cultured in DMEM (Eagle's Minimum Essential Medium) medium supplemented with 10% fetal calf serum (FCS) and 1% penicillin/streptomycin. All cells were used at a low passage number (passage 10), were subconfluently cultured and were seeded at 10^4 cells/cm^2 for the purpose of the experiments. • Chondrosarcoma cells Hs819.T cells were obtained from ATCC®. These cells were cultured in DMEM (Eagle's Minimum Essential Medium) medium supplemented with 10% fetal calf serum (FCS) and 1% penicillin/streptomycin. All cells were used at a low passage number (passage 10), were subconfluently cultured and were seeded at 10^4 cells/cm^2 for the purpose of the experiments. • Rhabdomyosarcoma cells: A-673 cells were obtained from ATCC®. These cells were cultured in DMEM (Eagle's Minimum Essential Medium) medium supplemented with 10% fetal calf serum (FCS) and 1% penicillin/streptomycin. All cells were used at a low passage number (passage 10), were subconfluently cultured and were seeded at 10^4 cells/cm^2 for the purpose of the experiments. • Adenocarcinoma cells: HCC4006 cells were obtained from ATCC®. These cells were cultured in RPMI-1640 medium (obtained from ATCC®) supplemented with 10% fetal calf serum (FCS) and 1% penicillin/streptomycin. All cells were used at a low passage number (passage 10), were subconfluently cultured and were seeded at 10^4 cells/cm^2 for the purpose of the experiments. • CMFDA is a Cell Tracker Green obtained from Invitrogen®. • DAPI was obtained from Sigma®. • Fetal bovine serum (FBS) was obtained from Gibco®. • Penicillin/streptomycin was obtained from Invitrogen®. • The AlamarBlue® assay was obtained from Molecular Probes®. • Anti phospho-p53 antibody was obtained from Santa Cruz Biotechnology®, • Anti pRB antibody was obtained from Santa Cruz Biotechnology®, • Monoclonal anti-integrin (extracellular domain) αv, α5, α3, α4, β1, β3, β5 and β9 antibodies were obtained from Santa Cruz Biotechnology®, • Cell cytoskeletal filamentous actin (F-actin) was visualized by Alexa Fluor® 488 phalloidin Sigma® labeling. • Monoclonal anti-vinculin antibody (clone hVIN-1, produced in mouse) was obtained from Sigma®.
(§2) • All of the peptides were synthetized using conventional solution and/or solid phase peptide synthesis methods. • All of the experiments were performed with a concentration of 400 ng/mL of GFR-binding compound(s) as defined herein. • All cell culture experiments were performed with cultures on plastic coated with type-I collagen in order to mimic the physiological conditions of the human body. • The compositions of pharmaceutical compositions used in the examples below are summarized in the following table:
(§3) The cells were first fixed for 20 min with 4% paraformaldehyde/PBS at 4° C. After fixation, the cells were permeabilized in PBS containing 1% Triton X-100 for 15 min. Protein immunofluorescent visualization was performed by first treating the cells with 1% (v/v) specific monoclonal antibodies for 1 hour at 37° C. Then the samples were incubated with Alexa Fluor® 568 or 647 (F(ab′)2 fragment of IgG(H+L)) during 30 min at room temperature. The cell nuclei were counterstained in 20 ng/mL DAPI for 10 min at room temperature.
(§4) For this type of quantification the freeware image analysis ImageJ® software was used. […]

[2] = tested on: MG63 cells; test: p53 protein expression level, immunofluorescence staining quantified with ImageJ, osteosarcoma cells; assay type: cell-based, human; set-up: P53: unit not given here; settings: for P53: Table 9, in association with SiRNA Integrin alpha 3+SiRNA Integrin beta 1 (SEQ ID NO: 141 to 163); for p53 (%): Table 4, cyclic GFR-binding peptide in association with SiRNA Integrin alpha 3 and SiRNA Integrin beta 1, 400 ng/mL, 24 hours
Experimental: as §1, §2, §3, §4

[3] = tested on: human rhabdosarcoma cells; test: pRB quantification, same procedure, rhabdosarcoma cells; assay type: cell-based; settings: for pRB: Table 9, in association with SiRNA Integrin alpha 3+RGDSPC+SiRNA Integrin beta 1+SiRNA Syndecan 1 (SEQ ID NO: 31, 32, 164 to 187)
Experimental: as §1, §2, §3, §4

[4] = tested on: human rhabdosarcoma cells; test: p53 quantification, same procedure, rhabdosarcoma cells; assay type: cell-based; set-up: P53: unit not given here; settings: for P53: Table 9, in association with SiRNA Integrin alpha 3+RGDSPC+SiRNA Integrin beta 1+SiRNA Syndecan 1 (SEQ ID NO: 31, 32, 164 to 187)
Experimental: as §1, §2, §3, §4

[5] = Table 4, MG63 cells, cyclic GFR-binding peptide in association with SiRNA Integrin alpha 3 and SiRNA Integrin beta 1, 400 ng/mL, 24 hours
[6] = Table 7, human osteosarcoma cells, MG63, GFR-binding compound within pharmaceutical association
[7] = Table 8, in association with SiRNA Integrin alpha 3, v, 4 and SiRNA Integrin beta 1
[8] = Table 5, cyclic GFR-binding peptide in association with SiRNA Integrin alpha 3+RGDSPC+SiRNA Integrin beta 1+SiRNA Syndecan 1, 400 ng/mL

Sequence: CSIPKASSVPTELSATSVLYYDEYDEKVVLRKHEMVVEG (Non-cyclic GFR-binding peptide) [SEQ ID NO: 153]
- pRB ([1]; MG63 cells): 10
- P53 [2]: 39

Sequence: APTLLNAISMLYFNDKQQIILKKYRLLVVRNDKQQII (also: cyclic, ring not given here) [SEQ ID NO: 38203]
- pRB (%) [1, 5]: 12%
- p53 (%) [2]: 44%

Sequence: CKVGKASSVPTKLSAISTLYLDDMGVPTLKNYQNMVVRASGSH (Non-cyclic GFR-binding peptide) [SEQ ID NO: 142]
- pRB ([1]; MG63 cells): 8
- P53 [2]: 36

Sequence: VPQQQEPLTTLYYDEYDKVVEQLSNQQVKSNDKQQII (also: cyclic peptide) [SEQ ID NO: 38211]
- pRB (%) [1, 5]: 14%
- p53 (%) [2]: 47%

Sequence: CTVPKPSSAPTQLSPISVLYKDDSSNVILKYHYNMVVRASGSH (Non-cyclic GFR-binding peptide) [SEQ ID NO: 147]
- pRB ([1]; MG63 cells): 8
- P53 [2]: 37

Sequence: CKVGKASSVPTKLNAISTLYLDDSSNVILKNYQ (Non-cyclic GFR-binding peptide) [SEQ ID NO: 160]
- pRB ([1]; MG63 cells): 8
- P53 [2]: 38

Sequence: CASASPSSVSQDLSAISTLYLIGKTPKILKNYQMIVKSSKSS (Non-cyclic GFR-binding peptide) [SEQ ID NO: 143]
- pRB ([1]; MG63 cells): 14
- P53 [2]: 37

Sequence: CKVPKPSSAPTQLSAISTLYLDEYDKVVLKNYQNMVVRA (Non-cyclic GFR-binding peptide) [SEQ ID NO: 141]
- pRB ([1]; MG63 cells): 11
- P53 [2]: 41

Sequence: CKVPKASSVPTELSAISTLYLAAAALKNYQEM (Non-cyclic GFR-binding peptide) [SEQ ID NO: 152]
- pRB ([1]; MG63 cells): 8
- P53 [2]: 37

Sequence: TPTSSSPINTLYFDDMGVPTYGKIPSSVVDDEYDKVV (not fully specified; also: cyclic peptide) [SEQ ID NO: 38207]
- pRB (%) [1, 5]: 13%
- p53 (%) [2]: 41%

Sequence: CAPTQLSPISVLYKDDSSNVILKYHYTLEDH (Non-cyclic GFR-binding peptide) [SEQ ID NO: 148]
- pRB ([1]; MG63 cells): 9
- P53 [2]: 42

Sequence: CAPTKLSAISMLYLDSSNNVILKNYQ (Non-cyclic GFR-binding peptide) [SEQ ID NO: 154]
- pRB ([1]; MG63 cells): 14
- P53 [2]: 40

Sequence: VPTVVSPISMLYIDDMGVPTYKQYEVVVVEDDMGVPT (also: cyclic peptide) [SEQ ID NO: 38208]
- pRB (%) [1, 5]: 9%
- p53 (%) [2]: 39%

Sequence: VPTAASAISILYLDAANNVVLKNYQAAVVEDKGVVTY (also: cyclic peptide) [SEQ ID NO: 38200]
- pRB (%) [1, 5]: 17%
- p53 (%) [2]: 41%

Sequence: VSQDLSAISTLYLKIVRKEPLKNYQEMVEE (Non-cyclic GFR-binding peptide) [SEQ ID NO: 58]
- pRB (%) [1, 6]: 19%

Sequence: VPTVVSAISTLYLRIKPHQGQHLKNYQVVVVENDKQQII (also: cyclic peptide) [SEQ ID NO: 38202]
- pRB (%) [1, 5]: 9%
- p53 (%) [2]: 42%

Sequence: ASASPSSVPQDLEPLTILYYVGRTPKVEQLSNMV (Non-cyclic GFR-binding peptide) [SEQ ID NO: 55]
- pRB (%) [1, 6]: 17%

Sequence: VPTDDSATSTLYYDKGVVTYLRKHRDDEHSDKGVVTY (also: cyclic peptide) [SEQ ID NO: 38214]
- pRB (%) [1, 5]: 18%
- p53 (%) [2]: 48%

Sequence: RNVQCRPTQLEPLPIVYYEIVRKKPEQLSNTLEDHLA [SEQ ID NO: 56] (Non-cyclic GFR-binding peptide)
- pRB (%) [1, 6]: 21%

Sequence: APVAAKPLSMLYVDKGVVTYDHHKDAAVEEDEYDKVV (also: cyclic, ring not given here) [SEQ ID NO: 38209]
- pRB (%) [1, 5]: 11%
- p53 (%) [2]: 38%

Sequence: CKASSVPTELSPISTLYKDENEKVVLKYHYDMVVEGSGSR (Non-cyclic GFR-binding peptide) [SEQ ID NO: 156]
- pRB ([1]; MG63 cells): 8
- P53 [2]: 45

Sequence: CPKPSSAPTQLNAISMLYFGGGGGGGLKKYRNMVVRA (Non-cyclic GFR-binding peptide) [SEQ ID NO: 151]
- pRB ([1]; MG63 cells): 9
- P53 [2]: 39

Sequence: RNVQCRPTQLEPLPIVYYEIVRKKPEQLSNTLEDHLA [SEQ ID NO: 61] (Non-cyclic GFR-binding peptide)
- pRB (%) [1, 6]: 18%

Sequence: TPTSSSPINTLYFDDMGVPTYGKIPSSVVD (Non-cyclic GFR-binding peptide) [SEQ ID NO: 130]
- pRB (%) [3, 7]: 15%
- P53 (%) [4, 7]: 48%

Sequence: CGIPEPSSVPEKTSSLSLLFFDENKNVVLKVYPNM (Non-cyclic GFR-binding peptide) [SEQ ID NO: 180]
- pRB [3]: 9
- P53 [4]: 29

Sequence: CTVPKPSSAPTQLSPISILYIDAANNVVYKQYEDMVVRA (Non-cyclic GFR-binding peptide) [SEQ ID NO: 187]
- pRB [3]: 9
- P53 [4]: 42

Sequence: NDEGLECVPTEERPVQVRKIRIKPHQGQKKATVFLQHNK [SEQ ID NO: 59] (Non-cyclic GFR-binding peptide)
- pRB (%) [1, 6]: 22%

Sequence: GTPGPKASSVPTELSPISTLYKDENEKVVLKYHYDMVVEGSGSR (Non-cyclic GFR-binding peptide) [SEQ ID NO: 167]
- pRB [3]: 11
- P53 [4]: 41

Sequence: NDEGLECVPTEERPVQVRKIRIKPHQGQKKATVFLQHNK [SEQ ID NO: 54] (Non-cyclic GFR-binding peptide)
- pRB (%) [1, 6]: 12%

Sequence: VPTGGEPLTTLYYNDKQQIIEQLSNGGEHS (Non-cyclic GFR-binding peptide) [SEQ ID NO: 138]
- pRB (%) [3, 7]: 20%
- P53 (%) [4, 7]: 45%

Sequence: APTGGSATSMLYYDKGVVTYLRKHRGGVVK (Non-cyclic GFR-binding peptide) [SEQ ID NO: 127]
- pRB (%) [3, 7]: 16%
- P53 (%) [4, 7]: 33%

Sequence: KASSSRVKMSNITVQIMRIKPHQGQHIGEMSVVEEHASGSHDKGVVTY (not fully specified; also: cyclic, mode of cyclisation not given here) [SEQ ID NO: 38222]
- pRB (%) [3, 8]: 15%
- P53 (%) [4, 8]: 52%

Sequence: VPQAAEPLPMLYYDKGVVTYEQLSNAAVRS (Non-cyclic GFR-binding peptide) [SEQ ID NO: 133]
- pRB (%) [3, 7]: 7%
- P53 (%) [4, 7]: 42%

Sequence: VPTAAEPISMLYLDEYDKVVKFKYEAAAVS (Non-cyclic GFR-binding peptide) [SEQ ID NO: 129]
- pRB (%) [3, 7]: 20%
- P53 (%) [4, 7]: 42%

Sequence: VPTAASAISILYLDAANNVVLKNYQAAVVE (Non-cyclic GFR-binding peptide) [SEQ ID NO: 123]
- pRB (%) [3, 7]: 11%
- P53 (%) [4, 7]: 32%

Sequence: VSQAARPVQTRKIDDMGVPTKKATVAAVKSDDMGVPT (also: cyclic peptide) [SEQ ID NO: 38220]
- pRB (%) [3, 8]: 9%
- P53 (%) [4, 8]: 42%

Sequence: GTPGPRNVQCRPTQVQLSAISTLYLAAALKNYQTLE (Non-cyclic GFR-binding peptide) [SEQ ID NO: 173]
- pRB [3]: 15
- P53 [4]: 37

Sequence: APTLLNAISMLYFNDKQQIILKKYRLLVVR (Non-cyclic GFR-binding peptide) [SEQ ID NO: 126]
- pRB (%) [3, 7]: 8%
- P53 (%) [4, 7]: 41%
